Data reported in PubChem BioAssay (NCI).
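Step 1: Grow cells in 96-well plates. Step 2: Expose to compound for 48 hours at 5 concentrations. Step 3: Interpolate endpoints linearly; if unreached, use highest concentration. GI50: concentration for 50% inhibition of growth. The concentration for full growth arrest is given as TGI.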

Legend:
Assay in all cases: DTP human tumour cell line panel, 48 h
MALME-3M melanoma = system: MALME-3M melanoma
M14 melanoma = system: M14 melanoma
SW-620 colon = system: SW-620 colon
SF-268 CNS = system: SF-268 CNS
786-0 renal = system: 786-0 renal
U251 CNS = system: U251 CNS
SK-MEL-28 melanoma = system: SK-MEL-28 melanoma
A498 renal = system: A498 renal
HOP-92 NSCLC = system: HOP-92 NSCLC
BT-549 breast = system: BT-549 breast
HT29 colon = system: HT29 colon
HCT-15 colon = system: HCT-15 colon
NCI-H23 lung = system: NCI-H23 lung
A549 NSCLC = system: A549 NSCLC
ACHN renal = system: ACHN renal
MDA-MB-435 = system: MDA-MB-435
HCT-116 colon = system: HCT-116 colon
EKVX NSCLC = system: EKVX NSCLC
T-47D breast = system: T-47D breast
SN12C renal = system: SN12C renal
NCI-H226 lung = system: NCI-H226 lung
CAKI-1 renal = system: CAKI-1 renal
IGROV1 ovarian = system: IGROV1 ovarian
COLO 205 colon = system: COLO 205 colon
NCI-H460 lung = system: NCI-H460 lung
UACC-257 melanoma = system: UACC-257 melanoma
MCF7 breast = system: MCF7 breast
UO-31 renal = system: UO-31 renal
CCRF-CEM leukemia = system: CCRF-CEM leukemia
DU-145 prostate = system: DU-145 prostate
SF-539 CNS = system: SF-539 CNS
SNB-75 CNS = system: SNB-75 CNS
HOP-62 NSCLC = system: HOP-62 NSCLC
SR leukemia = system: SR leukemia
TK-10 renal = system: TK-10 renal
NCI-H522 lung = system: NCI-H522 lung
PC-3 prostate = system: PC-3 prostate
MOLT-4 leukemia = system: MOLT-4 leukemia
SK-MEL-5 melanoma = system: SK-MEL-5 melanoma
SK-MEL-2 melanoma = system: SK-MEL-2 melanoma
OVCAR-5 ovarian = system: OVCAR-5 ovarian
SK-OV-3 ovarian = system: SK-OV-3 ovarian
MDA-MB-231 breast = system: MDA-MB-231 breast
K-562 leukemia = system: K-562 leukemia
KM12 colon = system: KM12 colon
NCI/ADR-RES ovarian = system: NCI/ADR-RES ovarian
UACC-62 melanoma = system: UACC-62 melanoma
SF-295 CNS = system: SF-295 CNS
HS 578T breast = system: HS 578T breast
HL-60(TB) leukemia = system: HL-60(TB) leukemia
LOX IMVI melanoma = system: LOX IMVI melanoma
RXF 393 renal = system: RXF 393 renal
RPMI-8226 leukemia = system: RPMI-8226 leukemia
OVCAR-3 ovarian = system: OVCAR-3 ovarian
HCC-2998 colon = system: HCC-2998 colon
SNB-19 CNS = system: SNB-19 CNS

## O=C(c1ccccc1)c1c(C(F)(F)F)n([O-])c2ccc(F)cc2[n+]1=O
MALME-3M melanoma
  GI50: 1370 nM
  TGI: 3040 nM
M14 melanoma
  GI50: 1280 nM
  TGI: 2670 nM
SW-620 colon
  GI50: 147 nM
  TGI: 306 nM
SF-268 CNS
  GI50: 945 nM
  TGI: 2400 nM
786-0 renal
  GI50: 1240 nM
  TGI: 2520 nM
U251 CNS
  GI50: 1070 nM
  TGI: 2260 nM
SK-MEL-28 melanoma
  GI50: 1100 nM
  TGI: 2320 nM
A498 renal
  GI50: 2380 nM
  TGI: 6040 nM
HOP-92 NSCLC
  GI50: 211 nM
  TGI: 394 nM
BT-549 breast
  GI50: 252 nM
  TGI: 788 nM
HT29 colon
  GI50: 502 nM
  TGI: 1790 nM
HCT-15 colon
  GI50: 260 nM
  TGI: 758 nM
NCI-H23 lung
  GI50: 980 nM
  TGI: 2590 nM
A549 NSCLC
  GI50: 749 nM
  TGI: 2970 nM
ACHN renal
  GI50: 1090 nM
  TGI: 2340 nM
MDA-MB-435
  GI50: 1300 nM
  TGI: 2660 nM
HCT-116 colon
  GI50: 307 nM
  TGI: 1020 nM
EKVX NSCLC
  GI50: 992 nM
  TGI: 2440 nM
T-47D breast
  GI50: 655 nM
  TGI: 2510 nM
SN12C renal
  GI50: 1020 nM
  TGI: 2570 nM
NCI-H226 lung
  GI50: 1550 nM
  TGI: 3020 nM
CAKI-1 renal
  GI50: 1500 nM
  TGI: 2850 nM
IGROV1 ovarian
  GI50: 517 nM
  TGI: 1980 nM
COLO 205 colon
  GI50: 383 nM
  TGI: 926 nM
NCI-H460 lung
  GI50: 663 nM
  TGI: 2290 nM
UACC-257 melanoma
  GI50: 1540 nM
  TGI: 3230 nM
MCF7 breast
  GI50: 373 nM
  TGI: 1670 nM
UO-31 renal
  GI50: 1380 nM
  TGI: 2740 nM
CCRF-CEM leukemia
  GI50: 349 nM
  TGI: > 100000 nM
DU-145 prostate
  GI50: 1300 nM
  TGI: 2570 nM
SF-539 CNS
  GI50: 1440 nM
  TGI: 2880 nM
SNB-75 CNS
  GI50: 1360 nM
  TGI: 2650 nM
HOP-62 NSCLC
  GI50: 1340 nM
  TGI: 2710 nM
SR leukemia
  GI50: 95.7 nM
TK-10 renal
  GI50: 1630 nM
  TGI: 3180 nM
NCI-H522 lung
  GI50: 911 nM
  TGI: 2590 nM
PC-3 prostate
  GI50: 252 nM
  TGI: 828 nM
MOLT-4 leukemia
  GI50: 362 nM
  TGI: 1480 nM
SK-MEL-5 melanoma
  GI50: 778 nM
  TGI: 2180 nM
SK-MEL-2 melanoma
  GI50: 1470 nM
  TGI: 3350 nM
OVCAR-5 ovarian
  GI50: 1750 nM
  TGI: 4130 nM
SK-OV-3 ovarian
  GI50: 1890 nM
  TGI: 3390 nM
MDA-MB-231 breast
  GI50: 662 nM
  TGI: 1630 nM
K-562 leukemia
  GI50: 348 nM
  TGI: 1770 nM
KM12 colon
  GI50: 872 nM
  TGI: 2470 nM
NCI/ADR-RES ovarian
  GI50: 1780 nM
  TGI: 4810 nM
UACC-62 melanoma
  GI50: 882 nM
  TGI: 2180 nM
SF-295 CNS
  GI50: 1760 nM
  TGI: 3480 nM
HS 578T breast
  GI50: 1440 nM
  TGI: 5080 nM
HL-60(TB) leukemia
  GI50: 188 nM
  TGI: 869 nM
LOX IMVI melanoma
  GI50: 167 nM
  TGI: 317 nM
RXF 393 renal
  GI50: 434 nM
  TGI: 1450 nM
RPMI-8226 leukemia
  GI50: 551 nM
  TGI: 1930 nM
OVCAR-3 ovarian
  GI50: 501 nM
  TGI: 1570 nM
HCC-2998 colon
  GI50: 773 nM
  TGI: 1900 nM
SNB-19 CNS
  GI50: 1870 nM
  TGI: 4010 nM
